Source: patent publication US9216991B2 (Ares Trading S.A., priority 2012, dated 2015)

Molecular target: T1, IRAK4 (Homo sapiens, UniProt Q9NWZ3)
T1 construct: His (N); TEV cleavage site (N)
T1 sequence (Q9NWZ3 1-460): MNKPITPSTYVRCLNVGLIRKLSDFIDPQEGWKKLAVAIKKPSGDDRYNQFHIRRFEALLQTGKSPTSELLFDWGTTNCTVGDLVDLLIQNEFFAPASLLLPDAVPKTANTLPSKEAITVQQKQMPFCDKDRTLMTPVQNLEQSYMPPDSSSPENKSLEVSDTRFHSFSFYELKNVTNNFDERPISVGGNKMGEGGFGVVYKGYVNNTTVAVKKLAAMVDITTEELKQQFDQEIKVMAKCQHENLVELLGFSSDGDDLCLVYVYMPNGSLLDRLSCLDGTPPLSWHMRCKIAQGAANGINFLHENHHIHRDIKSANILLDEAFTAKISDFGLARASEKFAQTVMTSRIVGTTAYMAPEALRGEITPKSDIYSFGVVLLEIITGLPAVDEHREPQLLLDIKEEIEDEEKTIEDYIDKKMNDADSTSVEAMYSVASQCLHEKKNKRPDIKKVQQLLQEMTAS
Assay: IRAK4 Enzymatic Assay
Type: biochemical
Conditions: His-TEV-IRAK4 20 ng/well, ATP 2 μM, STK1-biotin peptide 300 nM, 3 hours at 30° C., FlashPlate radioactivity
Method in brief: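 Recombinant His-TEV-tagged IRAK4 (20 ng/well) phosphorylates biotinylated STK1 peptide (300 nM) with 2 μM ATP plus [^33P]ATP, 3 h at 30 °C in pH 7.0 HEPES buffer with MgCl2 and MnCl2; compounds tested 20 μM to 1 nM. Reaction stopped with EDTA; incorporated radioactivity counted on streptavidin FlashPlates.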

SMILES | IC50
CC(C(=O)N(C)C)n1cc(-c2cnc(-c3cccc(-c4cnn(C)c4)c3)nc2)cn1 (centres unmarked) [Example 99, N,N-Dimethyl-2-(4-{2-[3-(1-methyl-1H-pyrazol-4-yl)-phenyl]-pyrimidin-5-yl}-pyrazol-1-yl)-propionamide] | 1 to 5 µM
COC1CN(C(=O)CCn2cc(-c3cnc(-c4cccc(-c5cnn(C)c5)c4)nc3)cn2)C1 [Example 100, 1-(3-Methoxy-azetidin-1-yl)-3-(4-{2-[3-(1-methyl-1H-pyrazol-4-yl)-phenyl]-pyrimidin-5-yl}-pyrazol-1-yl)-propan-1-one] | 1 to 5 µM
Cn1cc(-c2cccc(-c3ncc(-c4cnn(CCC(=O)N5CC6(COC6)C5)c4)cn3)c2)cn1 [Example 101, 3-(4-{2-[3-(1-Methyl-1H-pyrazol-4-yl)-phenyl]-pyrimidin-5-yl}-pyrazol-1-yl)-1-(2-oxa-6-aza-spiro[3.3]hept-6-yl)-propan-1-one] | 1 to 5 µM
CN1CCN(C(=O)CCn2cc(-c3cnc(-c4cccc(-c5cnn(C)c5)c4)nc3)cn2)CC1 [Example 102, 1-(4-Methyl-piperazin-1-yl)-3-(4-{2-[3-(1-methyl-1H-pyrazol-4-yl)-phenyl]-pyrimidin-5-yl}-pyrazol-1-yl)-propan-1-one] | 1 to 5 µM
CC(C(=O)N1CCOCC1)n1cc(-c2cnc(-c3cccc(-c4cnn(C)c4)c3)nc2)cn1 (centres unmarked) [Example 103, 2-(4-{2-[3-(1-Methyl-1H-pyrazol-4-yl)-phenyl]-pyrimidin-5-yl}-pyrazol-1-yl)-1-morpholin-4-yl-propan-1-one] | 1 to 5 µM
Cn1cc(-c2cccc(-c3ncc(-c4cnn(C5CCN(C(=O)C6CCOCC6)CC5)c4)cn3)c2)cn1 [Example 107, [4-(4-{2-[3-(1-Methyl-1H-pyrazol-4-yl)-phenyl]-pyrimidin-5-yl}-pyrazol-1-yl)-piperidin-1-yl]-(tetrahydro-pyran-4-yl)-methanone] | 0.1 to 1 µM
Cn1cc(-c2cccc(-c3ncc(-c4cnn(C5CCN(C(=O)C6CCCCO6)CC5)c4)cn3)c2)cn1 (centres unmarked) [Example 108, [4-(4-{2-[3-(1-Methyl-1H-pyrazol-4-yl)-phenyl]-pyrimidin-5-yl}-pyrazol-1-yl)-piperidin-1-yl]-(tetrahydro-pyran-2-yl)-methanone] | 0.1 to 1 µM
COCCC(=O)N1CCC(n2cc(-c3cnc(-c4cccc(-c5cnn(C)c5)c4)nc3)cn2)CC1 [Example 109, 3-Methoxy-1-[4-(4-{2-[3-(1-methyl-1H-pyrazol-4-yl)-phenyl]-pyrimidin-5-yl}-pyrazol-1-yl)-piperidin-1-yl]-propan-1-one] | 0.1 to 1 µM
Cn1cc(-c2cccc(-c3ncc(-c4cnn(C5C[C@H]6CC[C@@H](C5)N6)c4)cn3)c2)cn1 (stereo partly drawn) [Example 110, (1R,5S)-3-(4-{2-[3-(1-Methyl-1H-pyrazol-4-yl)-phenyl]-pyrimidin-5-yl}-pyrazol-1-yl)-8-aza-bicyclo[3.2.1]octane] | 0.1 to 1 µM
CCOCC(=O)N1CCC(n2cc(-c3cnc(-c4cccc(-c5cnn(C)c5)c4)nc3)cn2)CC1 [Example 111, 2-Ethoxy-1-[4-(4-{2-[3-(1-methyl-1H-pyrazol-4-yl)-phenyl]-pyrimidin-5-yl}-pyrazol-1-yl)-piperidin-1-yl]-ethanone] | 0.1 to 1 µM
CCOC1CC(N2CCC(n3cc(-c4cnc(-c5cccc(-c6cnn(C)c6)c5)nc4)cn3)CC2)C1(C)C (centres unmarked) [Example 112, 5-{1-[1-(3-Ethoxy-2,2-dimethyl-cyclobutyl)-piperidin-4-yl]-1H-pyrazol-4-yl}-2-[3-(1-methyl-1H-pyrazol-4-yl)-phenyl]-pyrimidine] | 0.1 to 1 µM
CN1CC(C(=O)N2CCC(n3cc(-c4cnc(-c5cccc(-c6cnn(C)c6)c5)nc4)cn3)CC2)CC1=O (centres unmarked) [Example 113, 1-Methyl-4-[4-(4-{2-[3-(1-methyl-1H-pyrazol-4-yl)-phenyl]-pyrimidin-5-yl}-pyrazol-1-yl)-piperidine-1-carbonyl]-pyrrolidin-2-one] | 0.1 to 1 µM
Cn1cc(-c2cccc(-c3ncc(-c4cnn(C5CCN(C(=O)CC(F)(F)F)CC5)c4)cn3)c2)cn1 [Example 114, 3,3,3-Trifluoro-1-[4-(4-{2-[3-(1-methyl-1H-pyrazol-4-yl)-phenyl]-pyrimidin-5-yl}-pyrazol-1-yl)-piperidin-1-yl]-propan-1-one] | 0.1 to 1 µM
Cn1cc(-c2cccc(-c3ncc(-c4cnn(C5CCN(C(=O)C(O)C(F)(F)F)CC5)c4)cn3)c2)cn1 (centres unmarked) [Example 115, 3,3,3-Trifluoro-2-hydroxy-1-[4-(4-{2-[3-(1-methyl-1H-pyrazol-4-yl)-phenyl]-pyrimidin-5-yl}-pyrazol-1-yl)-piperidin-1-yl]-propan-1-one] | 0.1 to 1 µM
Cn1cc(-c2cccc(-c3ncc(-c4cnn([C@@H]5CCNC5)c4)cn3)c2)cn1 [Example 116, 2-[3-(1-Methyl-1H-pyrazol-4-yl)-phenyl]-5-((R)-1-pyrrolidin-3-yl-1H-pyrazol-4-yl)-pyrimidine] | 0.1 to 1 µM

Second part, the compound after the results:

IC50 | SMILES
0.1 to 1 µM | COCC1CCCN(C(=O)Cn2cc(-c3cnc(-c4cccc(-c5cnn(C)c5)c4)nc3)cn2)C1 (centres unmarked) [Example 88, 1-(3-Methoxymethyl-piperidin-1-yl)-2-(4-{2-[3-(1-methyl-1H-pyrazol-4-yl)-phenyl]-pyrimidin-5-yl}-pyrazol-1-yl)-ethanone]
0.1 to 1 µM | Cc1ncccc1CCn1cc(-c2cnc(-c3cccc(-c4cnn(C)c4)c3)nc2)cn1 [Example 89, 2-[3-(1-Methyl-1H-pyrazol-4-yl)-phenyl]-5-{1-[2-(2-methyl-pyridin-3-yl)-ethyl]-1H-pyrazol-4-yl}-pyrimidine]
0.1 to 1 µM | COC1CCN(C(=O)Cn2cc(-c3cnc(-c4cccc(-c5cnn(C)c5)c4)nc3)cn2)C1 (centres unmarked) [Example 90, 1-(3-Methoxy-pyrrolidin-1-yl)-2-(4-{2-[3-(1-methyl-1H-pyrazol-4-yl)-phenyl]-pyrimidin-5-yl}-pyrazol-1-yl)-ethanone]
0.1 to 1 µM | CN(C(=O)Cn1cc(-c2cnc(-c3cccc(-c4cnn(C)c4)c3)nc2)cn1)C1CCOCC1 [Example 91, N-Methyl-2-(4-{2-[3-(1-methyl-1H-pyrazol-4-yl)-phenyl]-pyrimidin-5-yl}-pyrazol-1-yl)-N-(tetrahydro-pyran-4-yl)-acetamide]
0.1 to 1 µM | Cn1cc(-c2cccc(-c3ncc(-c4cnn(CC(=O)N5C[C@@H]6C[C@H]5CO6)c4)cn3)c2)cn1 [Example 92, 2-(4-{2-[3-(1-Methyl-1H-pyrazol-4-yl)-phenyl]-pyrimidin-5-yl}-pyrazol-1-yl)-1-(1S,4S)-2-oxa-5-aza-bicyclo[2.2.1]hept-5-yl-ethanone]
0.1 to 1 µM | Cn1cc(-c2cccc(-c3ncc(-c4cnn(CC(=O)N5CCCOCC5)c4)cn3)c2)cn1 [Example 93, 2-(4-{2-[3-(1-Methyl-1H-pyrazol-4-yl)-phenyl]-pyrimidin-5-yl}-pyrazol-1-yl)-1-[1,4]oxazepan-4-yl-ethanone]
0.1 to 1 µM | Cn1cc(-c2cccc(-c3ncc(-c4cnn(CC(=O)N5CC6CCC(C5)O6)c4)cn3)c2)cn1 [Example 94, 2-(4-{2-[3-(1-Methyl-1H-pyrazol-4-yl)-phenyl]-pyrimidin-5-yl}-pyrazol-1-yl)-1-(8-oxa-3-aza-bicyclo[3.2.1]oct-3-yl)-ethanone]
0.1 to 1 µM | Cn1cc(-c2cccc(-c3ncc(-c4cnn(C5CCN(C6CCOCC6F)CC5)c4)cn3)c2)cn1 (stereo not drawn) [Example 95, Cis-5-{1-[1-(3-Fluoro-tetrahydro-pyran-4-yl)-piperidin-4-yl]-1H-pyrazol-4-yl}-2-[3-(1-methyl-1H-pyrazol-4-yl)-phenyl]-pyrimidine]
0.1 to 1 µM | COc1ccc(CCn2cc(-c3cnc(-c4cccc(-c5cnn(C)c5)c4)nc3)cn2)cc1OC [Example 96, 5-{1-[2-(3,4-Dimethoxy-phenyl)-ethyl]-1H-pyrazol-4-yl}-2-[3-(1-methyl-1H-pyrazol-4-yl)-phenyl]-pyrimidine]
0.1 to 1 µM | Cn1cc(-c2cccc(-c3ncc(-c4cnn(C5CCOCC5)c4)cn3)c2)cn1 [Example 97, 2-[3-(1-Methyl-1H-pyrazol-4-yl)-phenyl]-5-[1-(tetrahydro-pyran-4-yl)-1H-pyrazol-4-yl]-pyrimidine]
0.1 to 1 µM | COCCn1cc(-c2cnc(-c3cccc(-c4cnn(C)c4)c3)nc2)cn1 [Example 98, 5-[1-(2-Methoxy-ethyl)-1H-pyrazol-4-yl]-2-[3-(1-methyl-1H-pyrazol-4-yl)-phenyl]-pyrimidine]
0.1 to 1 µM | Cn1cc(-c2cccc(-c3ncc(-c4cnn(C5CCN(C(=O)C6CCOC6)CC5)c4)cn3)c2)cn1 (centres unmarked) [Example 104, [4-(4-{2-[3-(1-Methyl-1H-pyrazol-4-yl)-phenyl]-pyrimidin-5-yl}-pyrazol-1-yl)-piperidin-1-yl]-(tetrahydro-furan-3-yl)-methanone]
0.1 to 1 µM | COCC(=O)N1CCC(n2cc(-c3cnc(-c4cccc(-c5cnn(C)c5)c4)nc3)cn2)CC1 [Example 105, 2-Methoxy-1-[4-(4-{2-[3-(1-methyl-1H-pyrazol-4-yl)-phenyl]-pyrimidin-5-yl}-pyrazol-1-yl)-piperidin-1-yl]-ethanone]
0.1 to 1 µM | Cn1cc(-c2cccc(-c3ncc(-c4cnn(C5CCN(C(=O)CO)CC5)c4)cn3)c2)cn1 [Example 106, 2-Hydroxy-1-[4-(4-{2-[3-(1-methyl-1H-pyrazol-4-yl)-phenyl]-pyrimidin-5-yl}-pyrazol-1-yl)-piperidin-1-yl]-ethanone]
